The values that follow come from patent publication US20100009922A1, “HYPOTENSIVE PEPTIDES FROM SOY PROTEINS AND METHOD OF PREPARATION” (priority 2008, published 2010).

This assay concerns the target T1, rabbit lung angiotensin converting enzyme (Oryctolagus cuniculus, UniProt P12822).
T1 construct: rabbit lung angiotensin converting enzyme (Sigma Chemical Company, St. Louis, Mo.); purchased Sigma Chemical Company, St. Louis, Mo; host or cells: rabbit lung (tissue-derived enzyme)
T1 sequence (P12822 34-1310): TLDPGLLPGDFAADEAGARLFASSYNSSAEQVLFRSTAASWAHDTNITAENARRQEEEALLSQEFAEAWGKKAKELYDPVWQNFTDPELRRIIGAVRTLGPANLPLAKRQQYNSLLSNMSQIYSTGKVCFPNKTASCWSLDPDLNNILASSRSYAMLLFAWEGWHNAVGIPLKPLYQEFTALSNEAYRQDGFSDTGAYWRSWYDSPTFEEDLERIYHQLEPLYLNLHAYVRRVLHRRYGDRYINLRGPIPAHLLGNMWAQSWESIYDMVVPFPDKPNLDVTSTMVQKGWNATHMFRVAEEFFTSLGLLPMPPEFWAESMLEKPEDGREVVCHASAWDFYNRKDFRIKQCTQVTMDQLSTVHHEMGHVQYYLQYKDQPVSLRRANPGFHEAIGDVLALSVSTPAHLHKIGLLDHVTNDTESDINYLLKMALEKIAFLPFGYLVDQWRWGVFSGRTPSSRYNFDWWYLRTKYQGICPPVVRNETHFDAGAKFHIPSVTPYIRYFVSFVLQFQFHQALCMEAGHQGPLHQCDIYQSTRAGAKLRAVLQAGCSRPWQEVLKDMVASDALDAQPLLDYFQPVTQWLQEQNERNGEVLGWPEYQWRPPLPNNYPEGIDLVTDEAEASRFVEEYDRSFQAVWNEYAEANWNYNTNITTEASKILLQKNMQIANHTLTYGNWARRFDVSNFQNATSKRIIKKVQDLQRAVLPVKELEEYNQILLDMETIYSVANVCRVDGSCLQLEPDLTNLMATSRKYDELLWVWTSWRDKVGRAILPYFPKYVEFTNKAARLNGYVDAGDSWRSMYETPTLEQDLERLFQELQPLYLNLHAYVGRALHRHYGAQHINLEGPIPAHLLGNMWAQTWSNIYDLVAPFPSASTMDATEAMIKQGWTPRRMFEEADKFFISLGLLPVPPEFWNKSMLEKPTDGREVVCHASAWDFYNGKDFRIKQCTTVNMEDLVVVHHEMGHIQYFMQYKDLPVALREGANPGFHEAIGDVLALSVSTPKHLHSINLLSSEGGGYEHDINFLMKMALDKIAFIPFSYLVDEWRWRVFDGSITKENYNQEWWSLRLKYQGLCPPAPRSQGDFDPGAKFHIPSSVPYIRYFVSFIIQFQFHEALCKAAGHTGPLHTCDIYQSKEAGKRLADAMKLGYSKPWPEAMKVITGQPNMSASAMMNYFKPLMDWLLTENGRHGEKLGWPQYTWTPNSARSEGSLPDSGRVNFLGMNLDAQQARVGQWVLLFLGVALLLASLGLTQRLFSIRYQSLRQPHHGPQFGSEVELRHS
Briefly: ACE inhibitory activity, FAPGG substrate. Type of assay: biochemical. To be noted: synthetic peptides, 37° C., 30 minutes, read-out: ACE Inhibition (IC50). How it is done:
Angiotensin-I-converting enzyme inhibitory activity was determined using FAPGG as the substrate. A mixture containing 100 μl of 1 mM FAPGG, 20 μl of the soy peptide solution, and 80 μl of reaction solution (100 mM Tris-HCl, pH 8.3, containing 0.3 M NaCl, 10 mM ZnCl2, and 0.025 U/ml rabbit lung angiotensin converting enzyme (Sigma Chemical Company, St. Louis, Mo.)) was added to a 96-well plate. The reaction was carried out at 37° C. for 30 minutes and the absorbance of the mixture was read using a spectrophotometry set at 340 nm to determine the enzyme activity. 20 μl of distilled water was used in the place of the soy peptide solution in each assay as a negative control. The inhibitory potency (IC50) of each fraction of the soy peptides was determined from plots of percentage inhibition vs. log 10[soy peptide] (mg/L). IC50 value of Angiotensin-I-converting enzyme, defined as the amount of soy peptide that produced a 50% inhibition of ACE activity, was determined for selected fractions. Captopril was used as the positive control.

Where no end group is shown, it is not given here.

For PIPFP [PP-5, PIPFP], the IC50 came out at 66 ± 15.3 µM.
The result for IPRPRPRP [IP-8, IPRPRPRP] reads 7.2 ± 1.7 µM; that for PVNKP [PP-5-1, PVNKP], 46.1 ± 5.2 µM; that for LKPDNR [LR-6, LKPDNR], 121 ± 1.7 µM.
